Experimental data: the supplement of paper PMC10307832

Tests used:
Assay in all cases: relative viability (nuclei count vs DMSO), 5 days (fraction); higher = more cells survive
[1] = compound: Cc1ccc2nc(NCCN)c3ncc(C)n3c2c1 + CS(=O)(=O)N1CCN(Cc2cc3nc(-c4cccc5[nH]ncc45)nc(N4CCOCC4)c3s2)CC1 [Pictilisib] (partner 1 µM)
Procedure, shortened: (§1)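 Relative viability was taken as the ratio of nuclei in treated wells to nuclei in vehicle wells. Lung cancer cell lines in 1536-well plates received compounds by pin tool one day after seeding, either one drug alone or a fixed anchor-drug dose plus five library-drug doses (not always all listed) in √10 steps. Nuclei were counted on 4× images after 5 days of treatment, and values are medians of duplicate plates.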

Salubrinal + Phenformin = compound: O=C(/C=C/c1ccccc1)NC(NC(=S)Nc1cccc2cccnc12)C(Cl)(Cl)Cl [Salubrinal] + N=C(N)NC(=N)NCCc1ccccc1 [Phenformin] (partner 250 µM)
Procedure, shortened: as §1

[2] = compound: Cc1ccc2nc(NCCN)c3ncc(C)n3c2c1 + NC(=O)Nc1cc(-c2cccc(F)c2)sc1C(=O)N[C@H]1CCCNC1 [AZD7762] (partner 0.2 µM)
Procedure, shortened: as §1

[3] = compound: Cc1ccc2nc(NCCN)c3ncc(C)n3c2c1 + CC(=O)Nc1cccc(-n2c(=O)n(C3CC3)c(=O)c3c(Nc4ccc(I)cc4F)n(C)c(=O)c(C)c32)c1 [Trametinib] (partner 0.02 µM)
Procedure, shortened: as §1

Cell Line	relative viability ([1]; first compound 0.04 µM)	relative viability ([1]; first compound 0.1265 µM)	relative viability ([1]; first compound 0.4 µM)	relative viability ([1]; first compound 1.265 µM)	relative viability ([1]; first compound 4 µM)	relative viability (Salubrinal + Phenformin; first compound 0.08 µM)	relative viability (Salubrinal + Phenformin; first compound 0.253 µM)	relative viability (Salubrinal + Phenformin; first compound 0.8 µM)	relative viability (Salubrinal + Phenformin; first compound 2.53 µM)	relative viability (Salubrinal + Phenformin; first compound 8 µM)	relative viability ([2]; first compound 0.04 µM)	relative viability ([2]; first compound 0.1265 µM)	relative viability ([2]; first compound 0.4 µM)	relative viability ([2]; first compound 1.265 µM)	relative viability ([2]; first compound 4 µM)	relative viability ([3]; first compound 0.04 µM)	relative viability ([3]; first compound 0.1265 µM)	relative viability ([3]; first compound 0.4 µM)	relative viability ([3]; first compound 1.265 µM)	relative viability ([3]; first compound 4 µM)
NCI-H1734	0.457	0.481	0.451	0.409	0.424	0.416	0.375	0.412	0.429	0.366	0.573	0.596	0.517	0.559	0.546	0.719	0.632	0.755	0.638	0.707
NCI-H2126	0.512	0.512	0.489	0.453	0.456	0.512	0.537	0.562	0.563	0.519	1.12	1.01	0.965	1.14	0.936	0.547	0.563	0.522	0.607	0.552
EMC-BAC-2	0.586	0.58	0.554	0.569	0.579	0.471	0.326	0.601	0.513	0.493	1.2	1.11	1.04	1.06	1.02	0.927	0.927	0.873	0.954	0.7
NCI-H1993	0.804	0.648	0.693	0.765	0.771	0.464	0.545	0.506	0.503	0.509	0.937	0.875	0.554	0.727	0.625	0.421	0.632	0.64	0.34	0.46
NCI-H647	0.552	0.409	0.385	0.44	0.373	0.607	0.293	0.885	0.595	0.452	0.44	0.517	0.38	0.574	0.148	0.542	0.378	0.437	0.419	0.341
NCI-H1792	0.348	0.244	0.309	0.259	0.242	0.258	–	0.368	0.239	0.262	0.822	0.665	–	0.768	0.674	0.645	0.397	–	0.405	0.488
ChaGo-K-1	0.697	0.743	0.661	0.671	0.443	0.506	0.461	0.535	0.455	0.45	0.946	0.901	0.874	0.808	0.921	0.884	0.924	0.904	0.849	0.77
LOU-NH91	0.528	0.534	0.514	0.56	0.475	0.813	0.693	0.739	0.583	0.663	0.869	0.789	0.753	0.702	0.733	0.819	0.792	0.794	0.787	0.775
